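How tested: cells in 96-well plates exposed to compound for 48 hours at five concentrations. TGI marks complete inhibition of growth.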
Tests used:
Assay in all cases: NCI-60 cell line screen, 48 h
HS 578T breast = system: HS 578T breast
TK-10 renal = system: TK-10 renal
NCI-H460 lung = system: NCI-H460 lung
OVCAR-4 ovarian = system: OVCAR-4 ovarian
MCF7 breast = system: MCF7 breast
NCI/ADR-RES ovarian = system: NCI/ADR-RES ovarian
SF-539 CNS = system: SF-539 CNS
HL-60(TB) leukemia = system: HL-60(TB) leukemia
OVCAR-8 ovarian = system: OVCAR-8 ovarian
NCI-H23 lung = system: NCI-H23 lung
PC-3 prostate = system: PC-3 prostate
SR leukemia = system: SR leukemia
UACC-62 melanoma = system: UACC-62 melanoma
SK-OV-3 ovarian = system: SK-OV-3 ovarian
M14 melanoma = system: M14 melanoma
BT-549 breast = system: BT-549 breast
SF-268 CNS = system: SF-268 CNS
MDA-MB-435 = system: MDA-MB-435
OVCAR-3 ovarian = system: OVCAR-3 ovarian
SNB-75 CNS = system: SNB-75 CNS
UO-31 renal = system: UO-31 renal
HOP-92 NSCLC = system: HOP-92 NSCLC
SF-295 CNS = system: SF-295 CNS
OVCAR-5 ovarian = system: OVCAR-5 ovarian
HOP-62 NSCLC = system: HOP-62 NSCLC
IGROV1 ovarian = system: IGROV1 ovarian
NCI-H522 lung = system: NCI-H522 lung
MOLT-4 leukemia = system: MOLT-4 leukemia
EKVX NSCLC = system: EKVX NSCLC
A549 NSCLC = system: A549 NSCLC
HCT-116 colon = system: HCT-116 colon
MALME-3M melanoma = system: MALME-3M melanoma
COLO 205 colon = system: COLO 205 colon
DU-145 prostate = system: DU-145 prostate
K-562 leukemia = system: K-562 leukemia
LOX IMVI melanoma = system: LOX IMVI melanoma
HCT-15 colon = system: HCT-15 colon
HCC-2998 colon = system: HCC-2998 colon
MDA-N = system: MDA-N
CCRF-CEM leukemia = system: CCRF-CEM leukemia
SK-MEL-28 melanoma = system: SK-MEL-28 melanoma
SN12C renal = system: SN12C renal
RPMI-8226 leukemia = system: RPMI-8226 leukemia
NCI-H226 lung = system: NCI-H226 lung
U251 CNS = system: U251 CNS
786-0 renal = system: 786-0 renal
MDA-MB-231 breast = system: MDA-MB-231 breast
SW-620 colon = system: SW-620 colon
UACC-257 melanoma = system: UACC-257 melanoma
SK-MEL-2 melanoma = system: SK-MEL-2 melanoma
SNB-19 CNS = system: SNB-19 CNS
HT29 colon = system: HT29 colon
ACHN renal = system: ACHN renal
CAKI-1 renal = system: CAKI-1 renal
KM12 colon = system: KM12 colon
A498 renal = system: A498 renal
SK-MEL-5 melanoma = system: SK-MEL-5 melanoma

C=C1C[C@]23CC[C@@H]4C(CO)(CO)CC(=O)C[C@]4(C)[C@@H]2CC[C@H]1C3
TGI (HS 578T breast): > 100 µM
TGI (TK-10 renal): > 100 µM
TGI (NCI-H460 lung): > 100 µM
TGI (OVCAR-4 ovarian): > 100 µM
TGI (MCF7 breast): > 100 µM
TGI (NCI/ADR-RES ovarian): > 100 µM
TGI (SF-539 CNS): > 100 µM
TGI (HL-60(TB) leukemia): > 100 µM
TGI (OVCAR-8 ovarian): > 100 µM
TGI (NCI-H23 lung): > 100 µM
TGI (PC-3 prostate): > 100 µM
TGI (SR leukemia): > 100 µM
TGI (UACC-62 melanoma): > 100 µM
TGI (SK-OV-3 ovarian): > 100 µM
TGI (M14 melanoma): > 100 µM
TGI (BT-549 breast): > 100 µM
TGI (SF-268 CNS): > 100 µM
TGI (MDA-MB-435): > 100 µM
TGI (OVCAR-3 ovarian): > 100 µM
TGI (SNB-75 CNS): > 100 µM
TGI (UO-31 renal): > 100 µM
TGI (HOP-92 NSCLC): > 100 µM
TGI (SF-295 CNS): > 100 µM
TGI (OVCAR-5 ovarian): > 100 µM
TGI (HOP-62 NSCLC): > 100 µM
TGI (IGROV1 ovarian): > 100 µM
TGI (NCI-H522 lung): > 100 µM
TGI (MOLT-4 leukemia): > 100 µM
TGI (EKVX NSCLC): > 100 µM
TGI (A549 NSCLC): > 100 µM
TGI (HCT-116 colon): > 100 µM
TGI (MALME-3M melanoma): > 100 µM
TGI (COLO 205 colon): > 100 µM
TGI (DU-145 prostate): > 100 µM
TGI (K-562 leukemia): > 100 µM
TGI (LOX IMVI melanoma): > 100 µM
TGI (HCT-15 colon): > 100 µM
TGI (HCC-2998 colon): > 100 µM
TGI (MDA-N): > 100 µM
TGI (CCRF-CEM leukemia): > 100 µM
TGI (SK-MEL-28 melanoma): > 100 µM
TGI (SN12C renal): > 100 µM
TGI (RPMI-8226 leukemia): > 100 µM
TGI (NCI-H226 lung): > 100 µM
TGI (U251 CNS): > 100 µM
TGI (786-0 renal): > 100 µM
TGI (MDA-MB-231 breast): > 100 µM
TGI (SW-620 colon): > 100 µM
TGI (UACC-257 melanoma): > 100 µM
TGI (SK-MEL-2 melanoma): > 100 µM
TGI (SNB-19 CNS): 35.9 µM
TGI (HT29 colon): > 100 µM
TGI (ACHN renal): > 100 µM
TGI (CAKI-1 renal): > 100 µM

COc1cccc(NC(=O)CC(=O)Nc2cccc(OC)c2)c1
TGI (HS 578T breast): > 100 µM
TGI (TK-10 renal): > 100 µM
TGI (NCI-H460 lung): > 100 µM
TGI (OVCAR-4 ovarian): > 100 µM
TGI (MCF7 breast): > 100 µM
TGI (NCI/ADR-RES ovarian): > 100 µM
TGI (SF-539 CNS): > 100 µM
TGI (HL-60(TB) leukemia): > 100 µM
TGI (OVCAR-8 ovarian): > 100 µM
TGI (NCI-H23 lung): > 100 µM
TGI (PC-3 prostate): > 100 µM
TGI (SR leukemia): > 100 µM
TGI (UACC-62 melanoma): > 100 µM
TGI (KM12 colon): > 100 µM
TGI (A498 renal): > 100 µM
TGI (SK-OV-3 ovarian): > 100 µM
TGI (M14 melanoma): > 100 µM
TGI (BT-549 breast): > 100 µM
TGI (SF-268 CNS): > 100 µM
TGI (MDA-MB-435): > 100 µM
TGI (OVCAR-3 ovarian): > 100 µM
TGI (UO-31 renal): > 100 µM
TGI (HOP-92 NSCLC): > 100 µM
TGI (SF-295 CNS): > 100 µM
TGI (HOP-62 NSCLC): > 100 µM
TGI (IGROV1 ovarian): > 100 µM
TGI (NCI-H522 lung): > 100 µM
TGI (MOLT-4 leukemia): > 100 µM
TGI (EKVX NSCLC): > 100 µM
TGI (A549 NSCLC): > 100 µM
TGI (HCT-116 colon): > 100 µM
TGI (MALME-3M melanoma): > 100 µM
TGI (COLO 205 colon): > 100 µM
TGI (DU-145 prostate): > 100 µM
TGI (K-562 leukemia): > 100 µM
TGI (LOX IMVI melanoma): > 100 µM
TGI (HCT-15 colon): > 100 µM
TGI (HCC-2998 colon): > 100 µM
TGI (MDA-N): > 100 µM
TGI (CCRF-CEM leukemia): > 100 µM
TGI (SK-MEL-28 melanoma): > 100 µM
TGI (SN12C renal): > 100 µM
TGI (RPMI-8226 leukemia): > 100 µM
TGI (NCI-H226 lung): > 100 µM
TGI (SK-MEL-5 melanoma): > 100 µM
TGI (U251 CNS): > 100 µM
TGI (786-0 renal): > 100 µM
TGI (MDA-MB-231 breast): > 100 µM
TGI (SW-620 colon): > 100 µM
TGI (UACC-257 melanoma): > 100 µM
TGI (SK-MEL-2 melanoma): > 100 µM
TGI (SNB-19 CNS): > 100 µM
TGI (HT29 colon): > 100 µM
TGI (ACHN renal): > 100 µM
TGI (CAKI-1 renal): > 100 µM

O=c1cc(NNc2ccc3ccccc3c2)[nH]c(=S)[nH]1
TGI (HS 578T breast): > 100 µM
TGI (TK-10 renal): > 100 µM
TGI (NCI-H460 lung): > 100 µM
TGI (OVCAR-4 ovarian): > 100 µM
TGI (MCF7 breast): 66.6 µM
TGI (NCI/ADR-RES ovarian): > 100 µM
TGI (SF-539 CNS): 82.1 µM
TGI (HL-60(TB) leukemia): 69.5 µM
TGI (OVCAR-8 ovarian): > 100 µM
TGI (NCI-H23 lung): > 100 µM
TGI (PC-3 prostate): 46.4 µM
TGI (SR leukemia): > 100 µM
TGI (KM12 colon): 38.3 µM
TGI (A498 renal): > 100 µM
TGI (M14 melanoma): > 100 µM
TGI (BT-549 breast): > 100 µM
TGI (SF-268 CNS): 80 µM
TGI (MDA-MB-435): > 100 µM
TGI (OVCAR-3 ovarian): 34.1 µM
TGI (UO-31 renal): > 100 µM
TGI (HOP-92 NSCLC): 62.1 µM
TGI (SF-295 CNS): > 100 µM
TGI (OVCAR-5 ovarian): > 100 µM
TGI (HOP-62 NSCLC): 98.3 µM
TGI (IGROV1 ovarian): > 100 µM
TGI (EKVX NSCLC): > 100 µM
TGI (A549 NSCLC): > 100 µM
TGI (HCT-116 colon): > 100 µM
TGI (MALME-3M melanoma): > 100 µM
TGI (COLO 205 colon): 46 µM
TGI (DU-145 prostate): > 100 µM
TGI (K-562 leukemia): 41.1 µM
TGI (LOX IMVI melanoma): 26 µM
TGI (HCT-15 colon): 34.1 µM
TGI (HCC-2998 colon): > 100 µM
TGI (MDA-N): > 100 µM
TGI (SK-MEL-28 melanoma): > 100 µM
TGI (SN12C renal): > 100 µM
TGI (RPMI-8226 leukemia): > 100 µM
TGI (NCI-H226 lung): > 100 µM
TGI (SK-MEL-5 melanoma): > 100 µM
TGI (U251 CNS): > 100 µM
TGI (786-0 renal): 39.6 µM
TGI (MDA-MB-231 breast): > 100 µM
TGI (SW-620 colon): 36.8 µM
TGI (UACC-257 melanoma): > 100 µM
TGI (SNB-19 CNS): > 100 µM
TGI (HT29 colon): 30 µM
TGI (ACHN renal): > 100 µM
